Earlier results in patent US9459262B2, “Systems and methods for determining the percentage of glycated hemoglobin” (Relia Diagnostic Systems, Inc., priority 2009, dated 2016).
Like-named read-outs stand apart in the source and are kept apart here.

Ionization constant (pKa) | Ionization constant (pKa) (second value) | SMILES
9.7 | – | Cc1ccccc1B(O)O [2-Methylphenylboronic acid]
9.2 | – | O=[N+]([O-])c1ccccc1B(O)O [2-Nitrophenylboronic acid]
7.2 | – | OB(O)c1cc(C(F)(F)F)cc(C(F)(F)F)c1 [3,5-Bis(trifluoromethyl)phenylboronic acid]
7.4 | – | OB(O)c1cc(Cl)cc(Cl)c1 [3,5-Dichlorophenylboronic acid]
9.1 | – | Cc1cc(C)cc(B(O)O)c1 [3,5-Dimethylphenylboronic acid]
6.9 | – | COC(=O)c1cc(B(O)O)cc([N+](=O)[O-])c1 [3-Methoxycarbonyl-5-nitrophenylboronic acid]
8.7 | – | COc1cccc(B(O)O)c1 [3-Methoxyphenylboronic acid]
9.0 | – | Cc1cccc(B(O)O)c1 [3-Methylphenylboronic acid]
4.0 | 8.2 | OB(O)c1cccnc1 [3-Pyridylboronic acid]
8.6 | – | OB(O)c1ccc(Br)cc1 [4-Bromophenylboronic acid]
8.4 | – | O=C(O)c1ccc(B(O)O)cc1 [4-Carboxyphenylboronic acid]
9.1 | – | OB(O)c1ccc(F)cc1 [4-Fluorophenylboronic acid]
9.3 | – | COc1ccc(B(O)O)cc1 [4-Methoxyphenylboronic acid]
9.3 | – | Cc1ccc(B(O)O)cc1 [4-Methylphenylboronic acid]
7.1 | – | O=[N+]([O-])c1ccc(B(O)O)cc1 [4-Nitrophenylboronic acid]
4.0 | 10 | OB(O)c1cccc2cccnc12 [8-Quinolinylboronic acid]
10.4 | – | CB(O)O [Methylboronic acid]
